Like-named read-outs stand apart in the source and are kept apart here.
Tests used:
CB1 receptor = biological target: T1, CB1 receptor (Rattus norvegicus, UniProt P20272); assay: CB1 receptor binding, rat forebrain membranes, [3H]CP-55,940 displacement
T1 construct: membranes were prepared from rat forebrain membranes; from tissue; host or cells: rat forebrain membranes
Protocol: (§1) The prepared cannabinoid compounds were tested for CB2 receptor binding affinity and for CB1 receptor affinity (to determine selectivity for the CB2 receptor). As used herein, “binding affinity” is represented by the IC50 value which is the concentration of an analog required to occupy the 50% of the total number (Bmax) of the receptors. The lower the IC50 value, the higher the binding affinity. […] The binding affinities (Ki) are expressed in nanomoles (nM).
For the CB1 receptor-binding studies, membranes were prepared from rat forebrain membranes according to the procedure of P. R. Dodd et al; A Rapid Method for Preparing Synaptosomes: Comparison with Alternative Procedures, Brain Res., 107–118 (1981). The binding of the novel analogues to the CB1 cannabinoid receptor was assessed as described in W. A. Devane et al; Determination and Characterization of a Cannabinoid Receptor in a Rat Brain, Mol. Pharmacol., 34, 605–613 (1988) and A. Charalambous et al; “5′-azido ^8−-THC: A Novel Photoaffinity Label for the Cannabinoid Receptor”, J. Med. Chem., 35, 3076–3079 (1992) with the following changes. The above articles are incorporated by reference herein.
Membranes, previously frozen at −80° C., were thawed on ice. To the stirred suspension was added three volumes of TME (25 mM Tris-HCl buffer, 5 mM MgCl2 and 1 mM EDTA) at a pH 7.4.The suspension was incubated at 4° C. for 30 min. At the end of the incubation, the membranes were pelleted and washed three times with TME.
(§2) The treated membranes were subsequently used in the binding assay described below. Approximately 30 μg of membranes were incubated in silanized 96-well microtiter plate with TME containing 0.1% essentially fatty acid-free bovine serum albumin (BSA), 0.8 nM [^3H] CP-55,940, and various concentrations of test materials at 30° C. for 1 hour. The samples were immediately filtered using a Packard Filtermate 196 and Whatman GF/C filterplates and washed with wash buffer (TME) containing 0.5% BSA. Radioactivity was detected using MicroScint 20 scintillation cocktail added directly to the dried filterplates, and the filterplates were counted using a Packard Instruments Top-Count. Nonspecific binding was assessed using 100 nM CP-55,940. Data collected from three independent experiments performed with duplicate determinations was normalized between 100% and 0% specific binding for [^3H] CP-55,940, determined using buffer and 100 nM CP-55,940.The normalized data was analyzed using a 4-parameter nonlinear logistic equation to yield IC50 values. Data from at least two independent experiments performed in duplicate was used to calculate IC50 values which were converted to Ki values using the using the assumptions of Cheng et al; “Relationship Between the Inhibition Constant (Ki) and the concentration of Inhibitor which causes 50% Inhibition (IC50) of an Enzymatic Reaction”, Biochem. Pharmacol., 22, 3099–3102, (1 973), which is incorporated by reference herein.

CB2 receptor = biological target: T2, CB2 receptor (Mus musculus, UniProt P47936); assay: CB2 receptor binding, mouse spleen membranes, [3H]CP-55,940 displacement; conditions: for Ki: mouse spleen membranes
T2 construct: membranes were prepared from frozen mouse spleen; from tissue; host or cells: frozen mouse spleen membranes
T2 sequence (P47936 whole entry): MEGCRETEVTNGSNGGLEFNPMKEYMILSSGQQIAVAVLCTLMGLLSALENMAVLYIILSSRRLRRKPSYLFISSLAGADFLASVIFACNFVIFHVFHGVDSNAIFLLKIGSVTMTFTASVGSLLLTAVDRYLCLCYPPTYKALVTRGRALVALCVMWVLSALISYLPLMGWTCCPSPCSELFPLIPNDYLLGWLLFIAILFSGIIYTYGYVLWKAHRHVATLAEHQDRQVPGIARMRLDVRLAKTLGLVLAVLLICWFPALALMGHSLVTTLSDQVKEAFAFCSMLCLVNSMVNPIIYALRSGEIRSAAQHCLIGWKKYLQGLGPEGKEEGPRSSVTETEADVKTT
Protocol: as §1, §2
For the CB2 receptor binding studies, membranes were prepared from frozen mouse spleen essentially according to the procedure of P. R. Dodd et al; “A Rapid Method for Preparing Synaptosomes: Comparison with Alternative Procedures”, Brain Res., 226, 107–118 (1981) which is incorporated by reference herein. Silanized centrifuge tubes were used throughout to minimize receptor loss due to adsorption. The CB2 binding assay was conducted in the same manner as the CB1 binding assay. The binding affinities (Ki) were also expressed in nanomoles (nM).

human CB2 receptors = biological target: T3, human CB2 receptors (Homo sapiens, UniProt P34972); assay: Binding affinity to human CB2 receptors, human tissue samples
T3 construct: using the below described procedure with human tissue samples; from tissue
T3 sequence (P34972 whole entry): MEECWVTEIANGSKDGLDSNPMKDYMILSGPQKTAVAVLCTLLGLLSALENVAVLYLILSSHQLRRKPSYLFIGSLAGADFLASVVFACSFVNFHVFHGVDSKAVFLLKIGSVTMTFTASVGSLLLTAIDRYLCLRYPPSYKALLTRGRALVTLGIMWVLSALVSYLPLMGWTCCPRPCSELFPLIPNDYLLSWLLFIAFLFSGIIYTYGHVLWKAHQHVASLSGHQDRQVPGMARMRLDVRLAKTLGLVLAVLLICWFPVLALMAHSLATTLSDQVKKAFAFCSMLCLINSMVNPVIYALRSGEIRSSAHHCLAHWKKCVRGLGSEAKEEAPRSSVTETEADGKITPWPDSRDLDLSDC

[1] = Table 1, 0.8 nM [3H]CP-55,940, read-out: Ki nM CB1
[2] = Table 2, 0.8 nM [3H]CP-55,940, read-out: Ki nM CB1
[3] = Table 2, human CB2, read-out: Ki nM CB2 (Human)
[4] = Ki nM CB1, Table 2, 0.8 nM [3H]CP-55,940

T1 sequence (P20272 whole entry): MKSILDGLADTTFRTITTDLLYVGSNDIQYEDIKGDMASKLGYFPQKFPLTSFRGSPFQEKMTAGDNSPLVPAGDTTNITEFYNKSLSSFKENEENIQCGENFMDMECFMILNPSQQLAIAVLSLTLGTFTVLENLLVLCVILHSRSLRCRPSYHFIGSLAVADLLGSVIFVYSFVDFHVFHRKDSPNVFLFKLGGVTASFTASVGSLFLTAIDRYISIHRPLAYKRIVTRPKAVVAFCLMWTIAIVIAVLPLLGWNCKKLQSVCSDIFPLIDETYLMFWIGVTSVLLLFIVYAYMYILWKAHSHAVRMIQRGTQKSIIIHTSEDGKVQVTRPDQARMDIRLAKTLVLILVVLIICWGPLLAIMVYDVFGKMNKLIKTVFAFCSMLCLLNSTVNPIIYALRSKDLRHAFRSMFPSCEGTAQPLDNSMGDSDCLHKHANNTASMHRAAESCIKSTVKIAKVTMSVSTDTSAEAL

CN1CCCCC1Cn1cc(C(=O)c2cc([N+](=O)[O-])ccc2I)c2ccccc21 (racemic) [2-7(R, S)]
Ki (CB1 receptor; [1]): 403 nM
selectivity for the CB2 receptor (in words) (CB2 receptor; CB2 versus CB1 binding): high selectivity for the CB2 receptor
Ki (CB2 receptor; Table 1, read-out: Ki nM CB2): 5.7 nM
Ki (human CB2 receptors; Table 1, human CB2, human tissue samples, read-out: Ki nM CB2 (human)): 1.6 nM
binding affinity to human CB2 receptors (in words) (human CB2 receptors; human tissue samples): surprisingly potent cannabinoid

CN1CCCCC1Cn1cc(C(=O)c2cc([N+](=O)[O-])ccc2I)c2ccccc21 (racemic) [2-32(R,S)]
Ki (CB1 receptor; [2]): 239 nM
Ki (CB2 receptor; Table 2, read-out: Ki nM CB2): 3.41 nM
Ki (human CB2 receptors; [3]): 13.6 nM

CN1CCCCC1Cn1cc(C(=O)c2ccccc2I)c2ccccc21 (racemic) [2-34(R,S)]
Ki (CB1 receptor; [2]): 2.89 nM
Ki (human CB2 receptors; [3]): 2.49 nM

CN1CCCC[C@@H]1Cn1cc(C(=O)c2cc([N+](=O)[O-])ccc2I)c2ccccc21 [2-7(R)]
Ki (CB1 receptor; Ki nM CB1, Table 1, 0.8 nM [3H]CP-55,940): 285 nM
Ki (CB2 receptor; Ki nM CB2, Table 1): 0.53 nM

CN1CCCC[C@@H]1Cn1cc(C(=O)c2ccccc2I)c2ccccc21 [2-24(R)]
Ki (CB1 receptor; [1]): 1.8 nM

CN1CCCC[C@H]1Cn1cc(C(=O)c2ccccc2I)c2ccccc21 [2-24(S)]
Ki (CB1 receptor; [1]): 561 nM

O=C(c1ccccc1I)c1cn(CC2COCCN2Cc2ccccc2)c2ccccc12 (stereo not drawn) [2-25]
Ki (CB1 receptor; [2]): 1220 nM
Ki (CB2 receptor; Table 2, read-out: Ki nM CB2): 1800 nM

O=C(c1cc([N+](=O)[O-])ccc1I)c1cn(CC2COCCN2Cc2ccccc2)c2ccccc12 (stereo not drawn) [2-26]
Ki (CB1 receptor; [2]): 4210 nM
Ki (CB2 receptor; Table 2, read-out: Ki nM CB2): 1430 nM

O=C(c1cccc([N+](=O)[O-])c1I)c1cn(CC2COCCN2Cc2ccccc2)c2ccccc12 (stereo not drawn) [2-27]
Ki (CB1 receptor; [2]): 2380 nM
Ki (CB2 receptor; Table 2, read-out: Ki nM CB2): 928 nM

CN1CCOCC1Cn1cc(C(=O)c2ccccc2I)c2ccccc21 (stereo not drawn) [2-28]
Ki (CB1 receptor; [2]): 27.9 nM
Ki (CB2 receptor; Table 2, read-out: Ki nM CB2): 226 nM

CN1CCOCC1Cn1cc(C(=O)c2cc([N+](=O)[O-])ccc2I)c2ccccc21 (stereo not drawn) [2-29]
Ki (CB1 receptor; [2]): 848 nM
Ki (CB2 receptor; Table 2, read-out: Ki nM CB2): 48.4 nM

CN1CCOCC1Cn1cc(C(=O)c2cccc([N+](=O)[O-])c2I)c2ccccc21 (stereo not drawn) [2-30]
Ki (CB1 receptor; [2]): 464 nM
Ki (CB2 receptor; Table 2, read-out: Ki nM CB2): 154 nM

CN1CCOCC1Cn1cc(C(=O)c2cccc3ccccc23)c2ccccc21 (stereo not drawn) [2-31]
Ki (CB1 receptor; [2]): 5.7 nM
Ki (CB2 receptor; Table 2, read-out: Ki nM CB2): 26.6 nM

CN1CCCC[C@@H]1Cn1cc(C(=O)c2cc([N+](=O)[O-])ccc2I)c2ccccc21 [2-32(R)]
Ki (CB1 receptor; [4]): 140 nM
Ki (CB2 receptor; Ki nM CB2, Table 2): 1.42 nM
Ki (human CB2 receptors): 6.69 nM

CN1CCCCC1Cn1cc(C(=O)C23CC4CC(CC(C4)C2)C3)c2ccccc21 (stereo not drawn) [2-33, 1-(N-Methyl-2-piperidinyl)methyl-3-(1-adamantanecarbonyl)-1H-indole]
Ki (CB1 receptor; [4]): 11.9 nM
Ki (CB2 receptor; Ki nM CB2, Table 2): 4.8 nM
Ki (human CB2 receptors): 2.32 nM

CN1CCCC[C@@H]1Cn1cc(C(=O)c2ccccc2I)c2ccccc21 [2-34(R)]
Ki (CB1 receptor; [4]): 1.57 nM

CN1CCCC[C@H]1Cn1cc(C(=O)c2ccccc2I)c2ccccc21 [2-34(S)]
Ki (CB1 receptor; [4]): 14.2 nM

CN1CCCCC1Cn1cc(C(=O)c2ccc3ccccc3n2)c2ccccc21 (stereo not drawn) [2-35]
Ki (CB1 receptor; [2]): 14.4 nM
Ki (CB2 receptor; Table 2, read-out: Ki nM CB2): 20.9 nM

CN1CCCCC1Cn1cc(C(=O)c2cnc3ccccc3c2)c2ccccc21 (stereo not drawn) [2-36]
Ki (CB1 receptor; [2]): 133 nM
Ki (CB2 receptor; Table 2, read-out: Ki nM CB2): 8.53 nM

CN1CCCCC1Cn1cc(C(=O)c2cnccn2)c2ccccc21 (stereo not drawn) [2-37]
Ki (CB1 receptor; [2]): 3540 nM
Ki (CB2 receptor; Table 2, read-out: Ki nM CB2): 837 nM

CN1CCCCC1Cn1cc(C(=O)c2ccnc3ccccc23)c2ccccc21 (stereo not drawn) [2-38]
Ki (CB1 receptor; [2]): 719 nM
Ki (CB2 receptor; Table 2, read-out: Ki nM CB2): 747 nM

CN1CCCCC1Cn1cc(C(=O)c2cccs2)c2ccccc21 (stereo not drawn) [2-39]
Ki (CB1 receptor; [2]): 41.4 nM
Ki (CB2 receptor; Table 2, read-out: Ki nM CB2): 19.5 nM

CN1CCCCC1Cn1cc(C(=O)c2cc3ccccc3cn2)c2ccccc21 (stereo not drawn) [2-40]
Ki (CB1 receptor; [2]): 28.6 nM
Ki (CB2 receptor; Table 2, read-out: Ki nM CB2): 14.5 nM

CN1CCCCC1Cn1cc(C(=O)c2cnc3ccccc3n2)c2ccccc21 (stereo not drawn) [2-41]
Ki (CB1 receptor; [2]): 158 nM
Ki (CB2 receptor; Table 2, read-out: Ki nM CB2): 160 nM

CN1CCCCC1Cn1cc(C(=O)c2ccccn2)c2ccccc21 (stereo not drawn) [2-42]
Ki (CB1 receptor; [2]): 421 nM
Ki (CB2 receptor; Table 2, read-out: Ki nM CB2): 147 nM

CN1CCCCC1Cn1cc(C(=O)c2cccc[n+]2[O-])c2ccccc21 (stereo not drawn) [2-43]
Ki (CB1 receptor; [2]): 8820 nM
Ki (CB2 receptor; Table 2, read-out: Ki nM CB2): 1860 nM

CN1CCCCC1Cn1cc(C(=O)c2cncc3ccccc23)c2ccccc21 (stereo not drawn) [2-44]
Ki (CB1 receptor; [2]): 16.9 nM
Ki (CB2 receptor; Table 2, read-out: Ki nM CB2): 7.04 nM

CN1CCCCC1Cn1cc(C(=O)c2cc(C#N)ccc2I)c2ccccc21 (stereo not drawn) [2-45]
Ki (CB1 receptor; [2]): 418 nM
Ki (CB2 receptor; Table 2, read-out: Ki nM CB2): 15.8 nM

CN1CCCCC1Cn1cc(C(=O)c2cc(C#N)ccc2I)c2ccccc21 (stereo not drawn) [2-46]
Ki (CB1 receptor; [2]): 339 nM
Ki (CB2 receptor; Table 2, read-out: Ki nM CB2): 15.4 nM

CN1CCCCC1Cn1cc(C(=O)c2cc(C(=O)O)ccc2I)c2ccccc21 (stereo not drawn) [2-47]
Ki (CB1 receptor; [2]): 240 nM
Ki (CB2 receptor; Table 2, read-out: Ki nM CB2): 18.8 nM

CN1CCCCC1Cn1cc(C(=O)c2cc(C(N)=O)ccc2I)c2ccccc21 (stereo not drawn) [2-48]
Ki (CB1 receptor; [2]): 390 nM
Ki (CB2 receptor; Table 2, read-out: Ki nM CB2): 47.2 nM

CN1CCCCC1Cn1cc(C(=O)c2cc(O)ccc2I)c2ccccc21 (stereo not drawn) [2-49]
Ki (CB1 receptor; [2]): 29.1 nM
Ki (CB2 receptor; Table 2, read-out: Ki nM CB2): 18.6 nM
